Assays:
B. microti [1] = experiment: In vivo assessment of chemically attenuated B. microti pRBCs in BALB/c mice; details: intravenous inoculation
Procedure: FIG. 1: In vivo assessment of chemically attenuated B. microti pRBCs. A and B. To assess attenuation of B. microti parasitized red blood cells (pRBCs), BALB/c mice (n=5/group) were injected intravenously with 10^6 pRBCs treated with 2 μM, 200 nM or 20 nM of Tafuramycin-A (TF-A). Control mice received 10^6 untreated pRBCs. C and D. The impact of parasite dose on protection induced by a chemically attenuated whole parasite B. microti vaccine. BALB/c mice (n=5/group) were immunized intravenously on days 0, 14 and 28 with 10^4, 10^5 or 10^6 B. microti parasitized red blood cells (pRBCs) that were chemically attenuated with 2 μM of Tafuramycin-A (TF-A). Control mice received 10^6 TF-A treated normal mouse red blood cells (mRBCs). Mice were challenged with 10^6 B. microti pRBCs two weeks after the final immunization. (A and C: Parasitemias were monitored by microscopy post challenge. B and D: Mice were assessed for signs of disease and were scored based on defined criteria listed on a clinical scoresheet. Data are expressed as mean±SEM). […]
Chemical attenuation of B. microti with Tafuramycin-A (TF-A) was conducted as described previously (Good et al., 2013). […] A cell count was performed using a haemocytometer, the immunizing dose calculated, and the blood was resuspended in the required volume of PBS for injection. […]

B. microti [2] = experiment: Assessment of chemically attenuated B. microti pRBCs in SCID mice; format: in vivo; details: 10^6 B. microti pRBCs treated with 2 μM TF-A, intravenous, immunodeficient SCID mice
Procedure: FIG. 5: Assessment of chemically attenuated B. microti pRBCs in BALB/c and SCID mice. Related to FIGS. 1 and 2. BALB/c and SCID mice (n=5/group) were injected intravenously with 10^6 B. microti parasitized red blood cells (pRBCs) that were chemically attenuated with 2 μM of Tafuramycin-A (TF-A). Control mice received pRBCs that were not treated with TF-A. A. Parasitemia was monitored by microscopy post challenge. B. Mice were assessed for signs of disease and were scored based on defined criteria listed on a clinical scoresheet. Data are expressed as mean±SEM.
Chemical attenuation of B. microti with Tafuramycin-A (TF-A) was conducted as described previously (Good et al., 2013). Blood from mice infected with B. microti (as a source of pRBCs) and from naïve mice (as a source of mRBCs) were collected into EDTA tubes. TF-A was diluted to a 20 μM final concentration in RPMI-1640 with glutamine and added to a 25 cm^2 vented tissue culture flask to give a final TF-A concentration of 2 μM, 200 nM or 20 nM as required. One hundred microlitres of blood containing B. microti pRBCs or mRBCs was added into each flask, as required. […] A cell count was performed using a haemocytometer, the immunizing dose calculated, and the blood was resuspended in the required volume of PBS for injection. […]

COc1cc2cc(C(=O)N3CC(CCl)c4c3cc(O)c3ccoc43)[nH]c2c(OC)c1OC (stereo not shown) [TF-A, seco-iso-cyclopropylfurano[2,3-e]indoline-TMI]
microscopically patent parasitemia and clinical signs of infection (B. microti [1]; 10^6 B. microti pRBCs attenuated with 200 nM TF-A): did not develop microscopically patent parasitemia nor clinical signs of infection | microscopically patent parasitemia and clinical signs of infection (B. microti [1]; 10^6 B. microti pRBCs attenuated with 2 μM TF-A): did not develop microscopically patent parasitemia nor clinical signs of infection | signs of clinical disease (B. microti [2]): remained without signs of clinical disease | time microscopically clear of parasites (B. microti [2]): 70 days

Reference: US20240238398A1, “IMMUNOGENIC COMPOSITION” (GRIFFITH UNIVERSITY, priority 2021, published 2024)
